In ChEMBL document CHEMBL5729210, “Benzodiazepine derivatives as RSV inhibitors” (2022):
Several values for one entry are separate records, joined by “and”; a condition that tells them apart may be missing. Equal values may be shown once.

Assay: RSV-A Assay: The description is Japanese.

Going from COCCOC(=O)c1nc2ccccc2n1CCOC to CCOC(=O)c1nc(C)sc1NCCOC, the EC50 falls from > 800 nM to < 400 nM. The second is the more potent here.

N#Cc1ccc(N2CCOCC2)c(-c2nnc(N[C@H]3N=C(c4ccccc4)c4ccccc4NC3=O)o2)n1 and O=C1Nc2ccccc2C(c2ccccc2)=N[C@@H]1Nc1nnc(-c2nc(C3CC3)ccc2N2CCOCC2)o1 cannot be ordered by EC50: < 400 nM for the first, < 400 nM for the second.

O=C1Nc2ccccc2C(c2ccccc2)=N[C@@H]1Nc1nnc(-c2ncc(C3CC3)cc2N2CC3CCC(C2)O3)o1 and O=C1Nc2ccccc2C(c2ccccc2)=N[C@@H]1Nc1nnc(-c2ncc(F)cc2N2CC3CCC(C2)O3)o1 cannot be ordered by EC50: < 400 nM for the first, < 400 nM for the second.

C#Cc1cnc(-c2nnc(N[C@H]3N=C(c4ccccc4)c4ccccc4NC3=O)o2)c(N2CCOCC2)c1 and N#Cc1cnc(-c2nnc(N[C@H]3N=C(c4ccccc4)c4ccccc4NC3=O)o2)c(N2CCOCC2)c1 cannot be ordered by EC50: < 400 nM for the first, < 400 nM for the second.

First: COCCOc1cc(C#N)ccc1-c1nnc(N[C@H]2N=C(c3ccccc3)c3ccccc3NC2=O)o1
Second: N#Cc1ccc(-c2nnc(N[C@H]3N=C(c4ccccc4)c4ccccc4NC3=O)o2)c(-c2ccoc2)c1
The EC50 of the first is lower: < 400 nM for the first, > 800 nM for the second.

First: CN1CCN(c2cc(C(F)(F)F)cnc2-c2nnc(N[C@H]3N=C(c4ccccc4)c4ccccc4NC3=O)o2)CC1=O
Second: C[C@@H]1CN(c2cc(C(F)(F)F)cnc2-c2nnc(N[C@H]3N=C(c4ccccc4)c4ccccc4NC3=O)o2)CCO1
The EC50 of the first is higher: > 800 nM for the first, < 400 nM for the second. The second is the more potent here.

O=C1Nc2ccccc2C(c2ccccc2)=NC1Nc1nnc(-c2ccccc2-n2cccn2)o1 (stereo not given) and O=C1Nc2ccccc2C(c2ccccc2)=N[C@@H]1Nc1nnc(-c2ccnn2-c2ccccc2)o1 cannot be ordered by EC50: > 800 nM for the first, > 800 nM for the second.

Going from O=C1Nc2c(F)cccc2C(c2ccccc2)=N[C@@H]1Nc1nnc(-c2ccccc2N2CCOCC2)o1 to O=C1Nc2c(F)cccc2C(c2ccccc2)=N[C@H]1Nc1nnc(-c2ccccc2N2CCOCC2)o1, the EC50 rises from < 400 nM to > 800 nM. The first is the more potent here.

CCOC(=O)c1ncc(N2CCCC2)cc1N1CCOCC1 and COC(=O)c1ccc(N2CCCC2)cc1N1CCOCC1 cannot be ordered by EC50: < 400 nM for the first, < 400 nM for the second.

Cc1cc(-c2nnc(N[C@H]3N=C(c4ccccc4)c4ccccc4NC3=O)o2)c(N2CCOCC2)s1 and O=C1Nc2ccccc2C(c2ccccc2)=N[C@@H]1Nc1nnc(-c2ncsc2N2CCOCC2)o1 cannot be ordered by EC50: < 400 nM for the first, < 400 nM for the second.

Cc1noc(C)c1-c1cc(C#N)ccc1-c1nnc(N[C@H]2N=C(c3ccccc3)c3ccccc3NC2=O)o1 and N#Cc1ccc(-c2nnc(N[C@H]3N=C(c4ccccc4)c4ccccc4NC3=O)o2)c(-c2ccsc2)c1 cannot be ordered by EC50: > 800 nM for the first, > 800 nM for the second.

CN(CC(C)(C)O)c1cc(C(F)(F)F)cnc1-c1nnc(N[C@H]2N=C(c3ccccc3)c3ccccc3NC2=O)o1 and CN(C)c1cc(C(F)(F)F)cnc1-c1nnc(N[C@H]2N=C(c3ccccc3)c3ccccc3NC2=O)o1 cannot be ordered by EC50: > 800 nM for the first, > 800 nM for the second.

C[C@@H]1COCCN1c1cc(C#N)ccc1-c1nnc(N[C@H]2N=C(c3ccccc3)c3ccccc3NC2=O)o1 and C[C@@H]1COCCN1c1cc(C#N)cnc1-c1nnc(N[C@H]2N=C(c3ccccc3)c3ccccc3NC2=O)o1 cannot be ordered by EC50: < 400 nM for the first, < 400 nM for the second.

Going from O=C1Nc2ccccc2C(c2ccccc2)=N[C@@H]1Nc1nnc(-c2nc3ccccc3cc2N2CCOCC2)o1 to O=C1Nc2ccccc2C(c2ccccc2)=N[C@@H]1Nc1nnc(-c2ncc3ccccc3c2N2CCOCC2)o1, the EC50 rises from < 400 nM to > 800 nM. The first is the more potent here.

Cc1ccc(-c2nnc(N[C@H]3N=C(c4ccccc4)c4ccccc4NC3=O)o2)c(N2CC3CCC(C2)O3)n1 and N#Cc1ccc(-c2nnc(N[C@H]3N=C(c4ccccc4)c4ccccc4NC3=O)o2)c(N2CC3CCC(C2)O3)c1 cannot be ordered by EC50: < 400 nM for the first, < 400 nM for the second.

First: CS(=O)(=O)c1cnc(-c2nnc(N[C@H]3N=C(c4ccccc4)c4ccccc4NC3=O)o2)c(N2CCOCC2)c1
Second: O=C1Nc2ccccc2C(c2ccccc2)=N[C@@H]1Nc1nnc(-c2ncc(C3CCCCC3)cc2N2CCOCC2)o1
The EC50 of the first is higher: > 800 nM for the first, < 400 nM for the second.

COCCn1nccc1-c1nnc(N[C@H]2N=C(c3ccccc3)c3ccccc3NC2=O)o1 and COCCn1ccnc1-c1nnc(N[C@H]2N=C(c3ccccc3)c3ccccc3NC2=O)o1 cannot be ordered by EC50: > 800 nM for the first, > 800 nM for the second.

O=C1Nc2ccccc2C(c2ccccc2)=N[C@@H]1Nc1nnc(-c2nc(C(F)(F)F)sc2N2CCOCC2)o1 and O=C1Nc2ccccc2C(c2ccccc2)=N[C@@H]1Nc1nnc(-c2nnsc2N2CCOCC2)o1 cannot be ordered by EC50: < 400 nM for the first, < 400 nM for the second.

Cc1nc(-c2nnc(N[C@H]3N=C(c4ccccc4)c4ccccc4NC3=O)o2)c(C2=CCOCC2)s1 and O=C1Nc2ccccc2C(c2ccccc2)=N[C@@H]1Nc1nnc(-c2ncsc2C2=CCOCC2)o1 cannot be ordered by EC50: < 400 nM for the first, < 400 nM for the second.

Cc1nc(-c2nnc(N[C@H]3N=C(c4ccccc4)c4ccccc4NC3=O)o2)c(Cl)s1 and Cc1nc(-c2nnc(N[C@H]3N=C(c4ccccc4)c4ccccc4NC3=O)o2)cs1 cannot be ordered by EC50: > 800 nM for the first, > 800 nM for the second.

First: Cc1ccc(-c2nnc(N[C@H]3N=C(c4ccccc4)c4ccccc4NC3=O)o2)c(N2C3CCC2COC3)n1
Second: O=C1Nc2ccccc2C(c2ccccc2)=N[C@@H]1Nc1nnc(-c2ccc(C(F)(F)F)nc2N2C3CCC2COC3)o1
The EC50 of the first is lower: < 400 nM for the first, > 800 nM for the second.

First: O=C1Nc2ccccc2C(c2ccccc2)=N[C@@H]1Nc1nnc(-c2cnc(C(F)(F)F)nc2N2CC3CCC(C2)O3)o1
Second: N#Cc1cnc(-c2nnc(N[C@H]3N=C(c4ccccc4)c4ccccc4NC3=O)o2)c(N2CC3CCC(C2)O3)c1
The EC50 of the first is higher: > 800 nM for the first, < 400 nM for the second. The second is the more potent here.

N#Cc1c[nH]c2cc(-c3nnc(N[C@H]4N=C(c5ccccc5)c5ccccc5NC4=O)o3)ccc12 and Cn1cc(-c2cc(C#N)cnc2-c2nnc(N[C@H]3N=C(c4ccccc4)c4ccccc4NC3=O)o2)ccc1=O cannot be ordered by EC50: > 800 nM for the first, > 800 nM for the second.

COC(=O)c1nc(Br)sc1N1CCOCC1 and COC(=O)c1occc1N1CCOCC1 cannot be ordered by EC50: < 400 nM for the first, < 400 nM for the second.

O=C1Nc2ccccc2C(c2ccccc2)=N[C@@H]1Nc1nnc(-c2ncc(C(F)(F)F)cc2C2CC2)o1 and CNc1cc(C(F)(F)F)cnc1-c1nnc(N[C@H]2N=C(c3ccccc3)c3ccccc3NC2=O)o1 cannot be ordered by EC50: > 800 nM for the first, > 800 nM for the second.

N#Cc1ccc(-c2nnc(N[C@H]3N=C(c4ccccc4)c4ccccc4NC3=O)o2)c(N2C3CCC2COC3)c1 and Cc1ccc(-c2nnc(N[C@H]3N=C(c4ccccc4)c4ccccc4NC3=O)o2)c(N2CCOC[C@H]2C)n1 cannot be ordered by EC50: < 400 nM for the first, < 400 nM for the second.

N#Cc1cc(N2CCOCC2)c(-c2nnc(N[C@H]3N=C(c4ccccc4)c4ccccc4NC3=O)o2)s1 and O=C1Nc2ccccc2C(c2ccccc2)=N[C@@H]1Nc1nnc(-c2nsnc2N2CCOCC2)o1 cannot be ordered by EC50: < 400 nM for the first, < 400 nM for the second.

Compared with C[C@@H]1CN(c2cc(F)ccc2-c2nnc(N[C@H]3N=C(c4ccccc4)c4ccccc4NC3=O)o2)C[C@H](C)O1, C[C@H]1CN(c2cc(C#N)cnc2-c2nnc(N[C@H]3N=C(c4ccccc4)c4ccccc4NC3=O)o2)CCO1 is lower in EC50: > 800 nM for the first, < 400 nM for the second.

Compared with N#CC1CN(c2ncccc2-c2nnc(NC3N=C(c4ccccc4)c4ccccc4NC3=O)o2)C1 (stereo not given), COc1ccc(-c2nnc(N[C@H]3N=C(c4ccccc4)c4ccccc4NC3=O)o2)c(N2CCOCC2)n1 is lower in EC50: > 800 nM for the first, < 400 nM for the second.

CCOC(=O)c1ncc(C(F)(F)F)cc1-c1ccncc1 and CCOC(=O)c1ncc(C(F)(F)F)cc1N cannot be ordered by EC50: > 800 nM for the first, > 800 nM for the second.

C[C@@H]1COCCN1c1cc(C(F)(F)F)cnc1-c1nnc(N[C@H]2N=C(c3ccccc3)c3ccccc3NC2=O)o1 and C[C@H]1CN(c2cc(C(F)(F)F)cnc2-c2nnc(N[C@H]3N=C(c4ccccc4)c4ccccc4NC3=O)o2)CCO1 cannot be ordered by EC50: < 400 nM for the first, < 400 nM for the second.

N#CCCNc1cc(C(F)(F)F)cnc1-c1nnc(N[C@H]2N=C(c3ccccc3)c3ccccc3NC2=O)o1 and COCCNc1cc(C(F)(F)F)cnc1-c1nnc(N[C@H]2N=C(c3ccccc3)c3ccccc3NC2=O)o1 cannot be ordered by EC50: < 400 nM for the first, < 400 nM for the second.

O=C1Nc2ccccc2C(c2ccccc2)=NC1Nc1nnc(-c2ccccc2C2=CCOCC2)o1 (stereo not given) and O=C1Nc2ccccc2C(c2ccccc2)=NC1Nc1nnc(-c2ccccc2C2CCOCC2)o1 (stereo not given) cannot be ordered by EC50: > 800 nM for the first, > 800 nM for the second.

Going from O=C1Nc2ccccc2C(c2ccccc2)=NC1Nc1nnc(C23CCN(CC2)CC3)o1 (stereo not given) to Cc1nc(-c2nnc(N[C@H]3N=C(c4ccccc4)c4ccccc4NC3=O)o2)c(N2CCOCC2)o1, the EC50 falls from > 800 nM to < 400 nM.

COc1ccccc1-c1nc(-c2nnc(N[C@H]3N=C(c4ccccc4)c4ccccc4NC3=O)o2)c(N2CCOCC2)s1 and O=C1Nc2ccccc2C(c2ccccc2)=N[C@@H]1Nc1nnc(-c2nc(-c3ccccc3)sc2N2CCOCC2)o1 cannot be ordered by EC50: < 400 nM for the first, < 400 nM for the second.

First: Cc1nc(-c2nnc(N[C@H]3N=C(c4ccccc4)c4ccccc4NC3=O)o2)c(C2CCOCC2)s1
Second: O=C1Nc2ccccc2C(c2ccccc2)=N[C@@H]1Nc1nnc(-c2ncc(C(F)(F)F)cc2N2CCC(O)CC2)o1
The EC50 of the first is lower: < 400 nM for the first, > 800 nM for the second.

CC(C)(O)CNc1cc(C(F)(F)F)cnc1-c1nnc(N[C@H]2N=C(c3ccccc3)c3ccccc3NC2=O)o1 and COC(=O)c1nc(-c2ccccn2)sc1Cl cannot be ordered by EC50: < 400 nM for the first, < 400 nM for the second.

With O=C1Nc2ccccc2C(c2ccccc2)=N[C@@H]1Nc1nnc(-c2ccc(C(F)(F)F)nc2N2CC3CCC(C2)O3)o1 the EC50 was “in the range around 600 nM”.
For O=C1Nc2c(F)cccc2C(c2ccccc2)=NC1Nc1nnc(-c2ccc(N3CCOCC3)cc2)o1 (stereo not given), the EC50 was “in the range around 600 nM”.
With O=C1Nc2ccccc2C(c2ccccc2)=NC1Nc1nnc(-c2ccc(-n3cncn3)cc2)o1 (stereo not given) the EC50 was “in the range around 600 nM”.
With O=C1Nc2ccccc2C(c2ccccc2)=N[C@@H]1Nc1nnc(-c2ncc(C3=CCCCC3)cc2N2CCOCC2)o1 the EC50 was “in the range around 600 nM”.
For N#Cc1cnc(-c2nnc(N[C@H]3N=C(c4ccccc4)c4ccccc4NC3=O)o2)c(N2C3CCC2COC3)c1, the EC50 was “in the range around 600 nM”.
In the case of C[C@@H]1CN(c2cc(C#N)cnc2-c2nnc(N[C@H]3N=C(c4ccccc4)c4ccccc4NC3=O)o2)CCO1, the EC50 is reported as “in the range around 600 nM”.
In the case of O=C1Nc2ccccc2C(c2ccccc2)=N[C@@H]1Nc1nnc(-c2cnn(-c3ccccc3)c2)o1, the EC50 is reported as “in the range around 600 nM”.
With O=C1Nc2ccccc2C(c2ccccc2)=N[C@@H]1Nc1nnc(-c2csc(N3CCOCC3)n2)o1 the EC50 was “in the range around 600 nM”.
In the case of O=C1Nc2c(F)cccc2C(c2ccccc2)=N[C@H]1Nc1nnc(-c2cccnc2N2CCOCC2)o1, the EC50 is reported as > 800 nM and < 400 nM.
With O=C1Nc2ccccc2C(c2ccccc2)=N[C@@H]1Nc1nnc(-c2ccc(F)cc2N2CC3CCC(C2)O3)o1 the EC50 was “in the range around 600 nM”.
With CN1CCN(c2cc(C(F)(F)F)cnc2-c2nnc(N[C@H]3N=C(c4ccccc4)c4ccccc4NC3=O)o2)CC1 the EC50 was “in the range around 600 nM”.
